pIC50, pKd: −log10 of the molar value. ≈ marks a conversion by molar mass, not a printed value.
Experiments:
Fascin [1] = target: T1, Fascin (Homo sapiens, UniProt Q16658)
Fascin [2] = target: T1, Fascin; remark: listed apart in the source
[3] = Efflux ratio of apparent permeability of the compound in human Caco2 cells; type: ADME, cell-based; conditions: caco-2
[4] = Apparent permeability of the compound across apical side to basolateral side in human Caco2 cells; type: ADME, cell-based; conditions: caco-2
[5] = Solubility of compound by turbidimetric method; type: physicochemical
Cytochrome P450 2D6 = Cytochrome P450 2D6 (Homo sapiens, UniProt P10635); test: Inhibition of CYP2D6 (unknown origin); type: ADME
[6] = Intrinsic clearance in mouse microsomes assessed per mg protein; type: ADME, Microsome
[7] = Lipophilicity, log D of the compound at pH 7.4; type: physicochemical; conditions: buffer
[8] = target: Voltage-gated inwardly rectifying potassium channel KCNH2 (Homo sapiens, UniProt Q12809); test: Inhibition of human ERG
Cytochrome P450 2C9 = Cytochrome P450 2C9 (Homo sapiens, UniProt P11712); test: Inhibition of CYP2C9 (unknown origin); type: ADME
Cytochrome P450 2C19 = Cytochrome P450 2C19 (Homo sapiens, UniProt P33261); test: Inhibition of CYP2C19 (unknown origin); type: ADME
[9] = Intrinsic clearance in human microsomes assessed per mg protein; type: ADME, Microsome
Fascin [10] = target: T1, Fascin; remark: listed apart in the source
Cytochrome P450 3A4 = Cytochrome P450 3A4 (Homo sapiens, UniProt P08684); test: Inhibition of CYP3A4 (unknown origin); type: ADME
Fascin [11] = target: T1, Fascin; test: Binding affinity to fascin 1 (unknown origin) by SPR assay

Chain of Cytochrome P450 2C9 (P11712 whole entry): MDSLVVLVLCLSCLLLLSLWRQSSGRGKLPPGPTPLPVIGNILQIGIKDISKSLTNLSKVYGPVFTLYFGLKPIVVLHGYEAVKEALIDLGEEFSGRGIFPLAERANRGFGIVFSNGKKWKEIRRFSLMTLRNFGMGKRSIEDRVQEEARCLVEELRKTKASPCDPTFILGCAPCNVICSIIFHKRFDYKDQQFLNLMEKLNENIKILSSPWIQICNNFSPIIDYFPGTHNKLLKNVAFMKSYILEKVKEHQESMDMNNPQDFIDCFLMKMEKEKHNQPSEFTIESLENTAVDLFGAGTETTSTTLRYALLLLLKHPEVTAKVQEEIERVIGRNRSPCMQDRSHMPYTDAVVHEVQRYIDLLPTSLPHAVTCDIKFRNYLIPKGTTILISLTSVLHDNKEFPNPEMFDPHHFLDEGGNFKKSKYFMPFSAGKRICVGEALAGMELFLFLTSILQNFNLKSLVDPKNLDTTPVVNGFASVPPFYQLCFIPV
Chain of Cytochrome P450 2C19 (P33261 whole entry): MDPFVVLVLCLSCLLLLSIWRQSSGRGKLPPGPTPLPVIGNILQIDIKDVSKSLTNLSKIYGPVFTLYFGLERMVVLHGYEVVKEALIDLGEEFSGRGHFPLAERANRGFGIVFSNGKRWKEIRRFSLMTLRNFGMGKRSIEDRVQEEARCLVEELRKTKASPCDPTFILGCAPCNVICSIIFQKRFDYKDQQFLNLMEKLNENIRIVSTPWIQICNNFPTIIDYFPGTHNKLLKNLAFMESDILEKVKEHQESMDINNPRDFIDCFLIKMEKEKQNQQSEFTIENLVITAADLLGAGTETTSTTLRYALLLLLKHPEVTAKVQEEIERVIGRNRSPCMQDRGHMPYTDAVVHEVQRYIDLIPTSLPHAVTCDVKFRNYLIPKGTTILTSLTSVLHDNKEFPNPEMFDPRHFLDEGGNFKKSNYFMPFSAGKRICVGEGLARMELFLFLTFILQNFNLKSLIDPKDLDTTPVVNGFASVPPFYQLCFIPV
Chain of Cytochrome P450 2D6 (P10635 whole entry): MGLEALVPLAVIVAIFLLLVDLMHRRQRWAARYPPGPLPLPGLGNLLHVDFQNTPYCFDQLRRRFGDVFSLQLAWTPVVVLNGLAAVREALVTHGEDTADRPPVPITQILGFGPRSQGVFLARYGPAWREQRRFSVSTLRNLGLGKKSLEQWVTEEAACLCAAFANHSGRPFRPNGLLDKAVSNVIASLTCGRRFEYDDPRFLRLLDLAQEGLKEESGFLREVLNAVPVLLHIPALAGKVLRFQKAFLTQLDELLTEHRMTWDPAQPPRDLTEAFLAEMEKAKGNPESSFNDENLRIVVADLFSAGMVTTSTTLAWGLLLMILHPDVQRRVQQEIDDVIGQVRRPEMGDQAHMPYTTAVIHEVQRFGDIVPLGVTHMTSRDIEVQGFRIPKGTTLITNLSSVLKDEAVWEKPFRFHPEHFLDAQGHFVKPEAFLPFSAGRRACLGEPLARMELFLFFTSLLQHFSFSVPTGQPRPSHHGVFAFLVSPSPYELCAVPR
Chain of Voltage-gated inwardly rectifying potassium channel KCNH2 (Q12809 whole entry): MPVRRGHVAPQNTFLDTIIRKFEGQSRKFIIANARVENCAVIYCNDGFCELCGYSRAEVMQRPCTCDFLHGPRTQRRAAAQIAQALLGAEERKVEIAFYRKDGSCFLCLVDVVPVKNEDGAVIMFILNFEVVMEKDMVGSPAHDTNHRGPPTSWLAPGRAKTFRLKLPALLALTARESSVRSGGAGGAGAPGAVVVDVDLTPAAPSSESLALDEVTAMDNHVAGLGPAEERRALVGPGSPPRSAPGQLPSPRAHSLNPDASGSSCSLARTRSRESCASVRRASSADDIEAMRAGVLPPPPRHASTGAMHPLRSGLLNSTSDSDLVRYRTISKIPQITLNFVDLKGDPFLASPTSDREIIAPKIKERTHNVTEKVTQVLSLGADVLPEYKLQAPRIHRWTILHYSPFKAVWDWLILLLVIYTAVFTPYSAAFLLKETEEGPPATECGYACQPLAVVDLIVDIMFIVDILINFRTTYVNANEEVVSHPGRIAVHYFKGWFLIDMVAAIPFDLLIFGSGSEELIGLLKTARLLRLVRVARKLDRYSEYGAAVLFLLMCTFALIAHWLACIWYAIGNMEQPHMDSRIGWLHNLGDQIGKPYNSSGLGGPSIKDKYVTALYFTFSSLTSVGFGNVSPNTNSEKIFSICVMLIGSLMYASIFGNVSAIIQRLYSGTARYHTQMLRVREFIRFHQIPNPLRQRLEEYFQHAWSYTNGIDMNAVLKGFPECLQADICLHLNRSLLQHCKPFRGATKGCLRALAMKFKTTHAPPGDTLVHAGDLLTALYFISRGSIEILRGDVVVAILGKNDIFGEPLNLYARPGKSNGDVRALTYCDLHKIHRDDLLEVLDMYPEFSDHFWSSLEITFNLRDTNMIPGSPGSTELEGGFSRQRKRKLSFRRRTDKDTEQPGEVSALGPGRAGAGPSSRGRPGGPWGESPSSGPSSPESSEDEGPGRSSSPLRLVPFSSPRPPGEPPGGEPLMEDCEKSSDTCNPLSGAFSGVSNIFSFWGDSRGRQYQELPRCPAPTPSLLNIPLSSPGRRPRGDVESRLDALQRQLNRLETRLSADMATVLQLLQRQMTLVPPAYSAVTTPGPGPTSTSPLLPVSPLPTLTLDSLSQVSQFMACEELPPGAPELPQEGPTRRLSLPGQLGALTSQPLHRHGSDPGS
Chain of Cytochrome P450 3A4 (P08684 whole entry): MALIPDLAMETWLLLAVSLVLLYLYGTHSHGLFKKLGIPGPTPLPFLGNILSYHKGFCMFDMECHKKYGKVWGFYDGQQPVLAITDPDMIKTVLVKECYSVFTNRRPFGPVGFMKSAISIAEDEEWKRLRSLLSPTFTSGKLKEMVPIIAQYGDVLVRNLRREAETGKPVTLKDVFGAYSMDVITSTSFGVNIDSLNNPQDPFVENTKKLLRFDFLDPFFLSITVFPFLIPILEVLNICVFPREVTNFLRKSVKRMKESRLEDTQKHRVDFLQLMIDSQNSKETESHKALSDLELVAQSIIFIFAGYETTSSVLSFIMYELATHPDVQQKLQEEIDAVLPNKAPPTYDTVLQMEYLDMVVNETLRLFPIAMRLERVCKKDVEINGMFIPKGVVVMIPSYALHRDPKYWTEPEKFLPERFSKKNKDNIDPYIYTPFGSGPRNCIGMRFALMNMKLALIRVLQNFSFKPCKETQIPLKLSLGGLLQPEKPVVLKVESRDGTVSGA

SMILES	pKd (Fascin [1])	pIC50 (Fascin [2])	other results
O=C(Nc1cnn(C2CCNC2)c1)c1ccc(=O)n(Cc2ccc(Cl)c(Cl)c2)c1 (configuration not stated)	< 4.00		
O=c1c2cnn(C3CCS(=O)(=O)C3)c2ncn1Cc1ccc(Cl)c(Cl)c1 (configuration not stated)		4.17	
Cn1cc(NC(=O)c2cn(Cc3ccc(Cl)c(Cl)c3)c(=O)c3cccnc23)cn1	< 4.00		
Cn1cc(NC(=O)c2cn(Cc3ccc(Cl)c(Cl)c3)c(=O)c3ccccc23)cn1	5.82	5.89	
O=C(Nc1ccncc1)c1cn(Cc2ccc(Cl)c(Cl)c2)c(=O)c2cnn(C3CCNCC3)c12	7.05	6.62	Ratio [3]: 37.8; Papp [4]: 0.15 ×10⁻⁶ cm/s; solubility kinetic [5]: 65 µM (≈ 32.3 µg/mL); pIC50 (Cytochrome P450 2D6): 5.80; CL [6]: 11.8 µL/min; logD [7]: 1.8; pIC50 [8]: < 4.60; pIC50 (Cytochrome P450 2C9): 5.23; pIC50 (Cytochrome P450 2C19): 4.66; CL [9]: 6.4 µL/min; pKd (Fascin [10]): 7.30; pIC50 (Cytochrome P450 3A4): 5.15
O=C(Nc1ccncc1)c1cn(Cc2ccc(Cl)c(Cl)c2)c(=O)c2cnn(C3CCS(=O)(=O)C3)c12 (configuration not stated)	6.57	6.48	
Cn1cc(NC(=O)c2cn(Cc3ccccc3)c(=O)c3ccccc23)cn1	4.53	4.17	
O=c1c2cn[nH]c2ncn1Cc1ccc(Cl)c(Cl)c1	< 3.30		
CN(c1cc2c(C(=O)Nc3cnn(C)c3)cn(Cc3ccc(Cl)c(Cl)c3)c(=O)c2cn1)S(C)(=O)=O	5.70		
Cn1cc(NC(=O)c2cn(Cc3cccc(Cl)c3)c(=O)c3ccccc23)cn1	5.12	4.94	
Cn1cc(NC(=O)c2cn(Cc3ccc(Cl)cc3)c(=O)c3ccccc23)cn1	5.57	5.34	
Cn1cc(NC(=O)c2cn(Cc3ccc(Cl)c(Cl)c3)c(=O)c3cnc(N4CCNCC4)cc23)cn1	6.24	6.20	
Cn1cc(NC(=O)c2cn(Cc3ccc(Cl)c(Cl)c3)c(=O)c3cnn(C4CCS(=O)(=O)C4)c23)cn1 (configuration not stated)	6.22	6.20	
Nc1cc(C(=O)Nc2cnn(C3CCNC3)c2)cn(Cc2ccc(Cl)c(Cl)c2)c1=O (configuration not stated)	4.68	< 4.00	
Cn1cc(NC(=O)c2cn(Cc3ccc(Cl)c(Cl)c3)c(=O)c3ncccc23)cn1	< 4.00		
CC(=O)N(C)c1ccc(Cl)cc1Cl			pKd (Fascin [11]): 4.04
